Laboratory results from patent publication US8362023B2, “Pyrazolo pyrimidines” (Hoffmann-La Roche Inc., priority 2011, dated 2013).
Structures can show the parent of a compound that is named as a salt.

How the values were obtained:
[1] = biological target: T1, Human DYRK1A (Homo sapiens, UniProt Q13627); assay: DYRK1A Kinase TR-FRET (IMAP-Tb) Assay; format: biochemical; settings: TR-FRET (IMAP-Tb); ATP 70 μM; 37° C. for 60 minutes; averages of multiple runs; read-out: Enzyme IC50 (μM) DYRK1A
T1 construct: purchased Invitrogen PV3997
Text: DYRK1A Kinase TR-FRET (IMAP-Tb) Assay
The kinase TR-FRET (IMAP-Tb) assay uses a fluorescence labeled substrate peptide in the kinase reaction. Upon phosphorylation by the kinase, phosphopeptide is produced, which will be detected by the binding solution provided in IMAP TR-FRET binding kit. After the completion of the kinase reaction, the reaction will be stopped by adding the binding solution containing terbium tracer. This tracer is immobilized on the surface of the IMAP beads, which also contain metal ions on the beads that bind to the phospho-groups of the products. Thus the phosphorylated product of the reaction can enter into close proximity to the tracer, producing resonance energy transfer. Due to the long lifetime of terbium (Tb) fluorescence the detection can be run in time resolved mode, which virtually eliminates fluorescence interference from assay components or compounds.
The TR-FRET signal measurement from this assay, given as an IC50 measurement, is a measure of a test compound's ability to interfere with the phosphorylation of the peptide substrate, that is it inhibits the phosphorylation of the substrate peptide by DYRK1A, and is thus a measure of the test compound's ability to inhibit the activity of DYRK1A.
Materials and Reagents • 1. Human DYRK1A: from Invitrogen. Part #PV3997 • 2. Substrate Peptide: […] • 3. IMAP TR-FRET IPP Explorer Kit: from Molecular Devices. Part #R8157 • 4. Kinase Assay Buffer (KAB): 10 mM HEPES pH 7.0, 50 mM NaCl, 5 mM MgCl2, 1 mM DTT, 1 mM NaVO4, 200 ug/mL BSA (0.02%) • 5. Assay Plate: Remp polypropylene clear 384-well microplate. […] Detection Plate: Costa black 384-well microplate.
Assay Procedure: this Assay was Performed as Follows: • 1. Transfer 1.5 μL of 20× compound solution to each well of an assay plate. • 2. Add to each well 22.5 μL of KAB Buffer. • 3. Add to each well 3 μL of the solution of DYRK1A and ATP. […] Add to each well 3 μL of the substrate peptide. The assay concentration is 1.0 μM • 5. Incubate the assay plates at 37° C. for 60 minutes. • 6. Add 18 μL of Detection Solution (1:800 diluted Progress bead stock, 1:400 diluted Tb stock, 80% Buffer A, and 20% Buffer B) into each well of detection plates. • 7. Transfer 6 μL of assay solution from the assay plate to the detection plate. • 8. Shake detection plates for 30 minutes. • 9. Read plates in Envision with wavelength set at excitation 340 nm for Tb, emission 490 nm, and […] 520 nm. • 10.

[2] = tested on: SW620 human colon cancer cells; assay: SW620 Cell Viability Assay; format: cell-based; settings: SW-620, 96 h, CellTiter-Glo Luminescent Cell Viability Assay, 4 days incubation, read-out: Cellular EC50 (μM) SW620
Protocol: SW620 Cell Viability Assay
1. Cell Plate Preparation: SW620 human colon cancer cells (known to express DYRK1B), obtained from ATCC, were seeded into 96-well plates at 3×10^3 cells/well in 50 μL of media. • Harvested the required number of cells (counts & viability determined by Guava Viacount). • Centrifuge cells to pellet and removed supernant. • Resuspended in growth media (50 μL/well) & pipetted thoroughly to break up clumps. • Setup for ˜100 wells/plate, therefore, VT=5 mL/plate @ […].
1A. Some cells (S—) were allowed to attach for 24 hrs, serum starved for 48 hrs, and then followed with test compound treatments.
Test compound solution were prepared in regular corresponding media supplemented with serum.
2. Test compound Preparation: Drugs were solubilized in either DMSO or media and prepared at various stock concentrations. • All compounds were incubated at 37° C. for 30 minutes and vortexed. • (5 mM stocks of test compound were prepared for non-soluble test compounds)
3. Test compound Plate Preparation: • The 10 mM test compound stock was diluted to a concentration of 100× the final Cmax concentration. • Then the test compound stock is diluted 50-fold in media and/or second test compound for a final Cmax concentration in the test compound plate. • The Cmax in the test compound plate (2% DMSO) is 2-fold higher than the final Cmax in the cell plate (60 μl, titrations were 1:3).
4. Viability Assay: This assay was performed as follows: • Transfer 50 μL of test compound solution per well from the test compound plate onto the cell plate prepared in Step #1. • Mix the plate with treated cells by pipetting up and down three times with 200 μL multi-channel pipette. • Incubate the cells in 5% CO2 incubator @ 37° C. for 4 days. • Run the CellTiter-Glo™ Luminescent Cell Viability Assay.
The results of this assay, given as EC50 values, indicate the concentration of test compound that inhibits tumor cell proliferation by 50%.

[3] = biological target: T2, Human DYRK1B (Homo sapiens, UniProt Q9Y463); assay: DYRK1B Kinase TR-FRET (IMAP-Tb) Assay; format: biochemical; settings: TR-FRET (IMAP-Tb); ATP 70 μM; 37° C. for 60 minutes; averages of multiple runs; read-out: Enzyme IC50 (μM) DYRK1B
T2 construct: purchased Invitrogen PR8350B (former PV4649)
Text: DYRK1B Kinase TR-FRET (IMAP-Tb) Assay Assay Principle The kinase TR-FRET (IMAP-Tb) assay uses a fluorescence labeled substrate peptide in the kinase reaction. Upon phosphorylation by the kinase, phosphopeptide is produced, which will be detected by the binding solution provided in IMAP TR-FRET binding kit. After the completion of the kinase reaction, the reaction will be stopped by adding the binding solution containing terbium tracer. This tracer is immobilized on the surface of the IMAP beads, which also contain metal ions on the beads that bind to the phospho-groups of the products. Thus the phosphorylated product of the reaction can enter into close proximity to the tracer, producing resonance energy transfer. Due to the long lifetime of terbium (Tb) fluorescence the detection can be run in time resolved mode, which virtually eliminates fluorescence interference from assay components or compounds. The TR-FRET signal measurement from this assay, given as an IC50 measurement, is a measure of a test compound's ability to interfere with the phosphorylation of the peptide substrate, that is it inhibits the phosphorylation of the substrate peptide by DYRK1B, and is thus a measure of the test compound's ability to inhibit the activity of DYRK1B. IC50 is the amount of test compound that inhibits 50% of the activity of DYRK1B in this assay. In some cases where the IC50 was not determined, then the % inhibition at 10 μM test compound concentration may be reported. Materials and Reagents • 1. Human DYRK1B: from Invitrogen. Part #PR8350B (former PV4649) • 2. Substrate Peptide: in-house synthesized: RRRFRPASPLRGPPK • 3. IMAP TR-FRET IPP Explorer Kit: from Molecular Devices. Part #R8157 • 4. Kinase Assay Buffer (KAB): 10 mM HEPES pH 7.0, 50 mM NaCl, 5 mM MgCl2, 1 mM DTT, 1 mM NaVO4, 200 μg/mL BSA (0.02%) • 5. Assay Plate: Remp polypropylene clear 384-well microplate. Cat#23490-102 • 6. Detection Plate: Costa black 384-well microplate. Cat #3710 Assay Procedure: this Assay was Performed as Follows: • 1. Transfer 1.5 μL of 20× compound solution to each well of an assay plate. • 2. Add to each well 22.5 μL of KAB Buffer. • 3. Add to each well 3 μL of the solution of DYRK1B and ATP. […] Add to each well 3 μL of the substrate peptide. The assay concentration is 1.0 μM • 5. Incubate the assay plates at 37° C. for 60 minutes. • 6. Add 18 μL of Detection Solution (1:800 diluted Progress bead stock, 1:400 diluted Tb stock, 80% Buffer A, and 20% Buffer B) into each well of detection plates. • 7. Transfer 6 μL of assay solution from the assay plate to the detection plate. • 8. Shake detection plates for 30 minutes. • 9. Read plates in Envision with wavelength set at excitation 340 nm for Tb, emission 490 nm, and […] 520 nm. • 10. Calculation: TR-FRET Signal=(Reading at […]/Reading at 490 nM)×2000000

T2 sequence (Q9Y463 whole entry): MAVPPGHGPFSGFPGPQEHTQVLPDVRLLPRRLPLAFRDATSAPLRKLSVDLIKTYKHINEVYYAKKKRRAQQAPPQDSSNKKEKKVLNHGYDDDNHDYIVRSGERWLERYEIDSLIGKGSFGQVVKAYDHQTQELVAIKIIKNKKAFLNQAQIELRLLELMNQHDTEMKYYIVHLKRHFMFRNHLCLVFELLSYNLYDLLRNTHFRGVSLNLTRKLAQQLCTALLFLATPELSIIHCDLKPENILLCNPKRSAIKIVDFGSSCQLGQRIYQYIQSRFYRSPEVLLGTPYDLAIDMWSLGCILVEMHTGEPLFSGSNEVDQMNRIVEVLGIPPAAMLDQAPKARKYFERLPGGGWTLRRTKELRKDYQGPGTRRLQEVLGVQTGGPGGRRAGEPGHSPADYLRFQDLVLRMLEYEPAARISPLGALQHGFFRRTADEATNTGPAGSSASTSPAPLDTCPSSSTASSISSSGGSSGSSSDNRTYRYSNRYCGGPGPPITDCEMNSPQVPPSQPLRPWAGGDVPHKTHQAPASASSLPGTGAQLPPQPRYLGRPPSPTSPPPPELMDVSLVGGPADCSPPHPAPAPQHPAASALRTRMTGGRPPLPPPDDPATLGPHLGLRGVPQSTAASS

SMILES	IC50 [1] [µM]	EC50 [2] [µM]	IC50 [3] [µM]
c1cc(NCc2ccsc2)nc(-c2n[nH]c3nc(NCCN4CCOCC4)ncc23)c1 [Example 60, (2-Morpholin-4-yl-ethyl)-(3-{6-[(thiophen-3-ylmethyl)-amino]-pyridin-2-yl}-1H-pyrazolo[3,4-d]pyrimidin-6-yl)-amine]	0.785	> 10	0.234
c1ccc(CNc2nccc(-c3n[nH]c4nc(NCCN5CCOCC5)ncc34)n2)cc1 [Example 61, [3-(2-Benzylamino-pyrimidin-4-yl)-1H-pyrazolo[3,4-d]pyrimidin-6-yl]-(2-morpholin-4-yl-ethyl)-amine; hydrochloride]	0.061	> 10	0.0958
Clc1cccc(CNc2nccc(-c3n[nH]c4nc(NCCN5CCOCC5)ncc34)n2)c1 [Example 62, {3-[2-(3-Chloro-benzylamino)-pyrimidin-4-yl]-1H-pyrazolo[3,4-d]pyrimidin-6-yl}-(2-morpholin-4-yl-ethyl)-amine; hydrochloride]	0.0384	> 10	0.0586
Clc1ccccc1CNc1nccc(-c2n[nH]c3nc(NCCN4CCOCC4)ncc23)n1 [Example 63, {3-[2-(2-Chloro-benzylamino)-pyrimidin-4-yl]-1H-pyrazolo[3,4-d]pyrimidin-6-yl}-(2-morpholin-4-yl-ethyl)-amine; hydrochloride]	0.0371	0.9	0.0671
Clc1ccc(CNc2nccc(-c3n[nH]c4nc(NCCN5CCOCC5)ncc34)n2)cc1 [Example 64, {3-[2-(4-Chloro-benzylamino)-pyrimidin-4-yl]-1H-pyrazolo[3,4-d]pyrimidin-6-yl}-(2-morpholin-4-yl-ethyl)-amine; hydrochloride]	0.242	> 10	0.353
N[C@H]1CC[C@H](Nc2ncc3c(-c4ccnc(NCc5ccsc5)n4)n[nH]c3n2)CC1 [Example 66, N-(3-{2-[(Thiophen-3-ylmethyl)-amino]-pyrimidin-4-yl}-1H-pyrazolo[3,4-d]pyrimidin-6-yl)-cyclohexane-1,4-diamine; hydrochloride]	0.0148	0.04	0.0172
NCCC(Nc1cccc(-c2n[nH]c3nc(N[C@H]4CC[C@H](N)CC4)ncc23)n1)c1ccccc1 (stereo partly drawn) [Example 69, N-{3-[6-(3-Amino-1-phenyl-propylamino)-pyridin-2-yl]-1H-pyrazolo[3,4-d]pyrimidin-6-yl}-cyclohexane-1,4-diamine; hydrochloride]	0.231	0.001	0.197
N[C@H]1CC[C@H](Nc2ncc3c(-c4ccnc(NCc5ccccc5)n4)n[nH]c3n2)CC1 [Example 70, N-[3-(2-Benzylamino-pyrimidin-4-yl)-1H-pyrazolo[3,4-d]pyrimidin-6-yl]-cyclohexane-1,4-diamine; hydrochloride]	0.0062	> 10	0.0125
N[C@H]1CC[C@H](Nc2ncc3c(-c4ccnc(NCc5cccc(Cl)c5)n4)n[nH]c3n2)CC1 [Example 71, N-{3-[2-(3-Chloro-benzylamino)-pyrimidin-4-yl]-1H-pyrazolo[3,4-d]pyrimidin-6-yl}-cyclohexane-1,4-diamine; hydrochloride]	0.0046	0.027	0.006
N[C@H]1CC[C@H](Nc2ncc3c(-c4ccnc(NCc5ccc(Cl)cc5)n4)n[nH]c3n2)CC1 [Example 72, N-{3-[2-(4-Chloro-benzylamino)-pyrimidin-4-yl]-1H-pyrazolo[3,4-d]pyrimidin-6-yl}-cyclohexane-1,4-diamine; hydrochloride]	0.013	0.056	0.009
NCC(Nc1cccc(-c2n[nH]c3nc(N[C@H]4CC[C@H](N)CC4)ncc23)n1)c1ccccc1 (stereo partly drawn) [Example 74, N-{3-[6-(2-Amino-1-phenyl-ethylamino)-pyridin-2-yl]-1H-pyrazolo[3,4-d]pyrimidin-6-yl}-cyclohexane-1,4-diamine; hydrochloride]	0.0046	> 10	< 0.0046
NCC(Nc1nccc(-c2n[nH]c3nc(NCCN4CCOCC4)ncc23)n1)c1cccc(Cl)c1 (stereo not drawn) [Example 76, 1-(3-Chloro-phenyl)-N1-{4-[6-(2-morpholin-4-yl-ethylamino)-1H-pyrazolo[3,4-d]pyrimidin-3-yl]-pyrimidin-2-yl}-ethane-1,2-diamine; hydrochloride]	0.0076	0.14	0.0121
